Data as given in patent US12310975B2, “Modulators of BCL6 proteolysis and associated methods of use” (Arvinas Operations, Inc., priority 2019, dated 2025).

target: BCL6 (Homo sapiens (Human), UniProt P41182); assay: Immunofluorescence high content imaging of BCL6 degradation in T47D cells; assay type: cell-based; conditions: T47D cells
Procedure, shortened: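 T47D cells were treated for 3 days at 37 °C with 11-point 3-fold dilutions of bifunctional degrader (final top 0.1 or 1 μM). BCL6 was detected by immunofluorescence after PFA fixation, with Hoechst and cell mask counterstains, and imaged at 10×, 4 fields/well.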

Question: CNC(=O)COc1cc2cc(Nc3nc(N4CCC(OC5CC6(CCN(c7ccc8c(c7)C(=O)N(C7CCC(=O)NC7=O)C8=O)CC6)C5)CC4)ncc3Cl)ccc2n(C(C)C)c1=O (centres unmarked) [compound 390, 2-{[6-({5-chloro-2-[4-({7-[2-(2,6-dioxopiperidin-3-yl)-1,3-dioxo-2,3-dihydro-1H-isoindol-5-yl]-7-azaspiro[3.5]nonan-2-yl}oxy)piperidin-1-yl]pyrimidin-4-yl}amino)-2-oxo-1-(propan-2-yl)-1,2-dihydroquinolin-3-yl]oxy}-N-methylacetamide] was tested. Which Dmax did it give?
Answer: 50 to 70%

Question: And the IC50?
Answer: < 10 nM

Question: Which Dmax does the source give for CNC(=O)COc1cc2cc(Nc3nc(N4CCC(OC5CC6(CCN(c7cccc8c7C(=O)N(C7CCC(=O)NC7=O)C8=O)CC6)C5)CC4)ncc3Cl)ccc2n(C(C)C)c1=O (centres unmarked) [compound 391, 2-{[6-({5-chloro-2-[4-({7-[2-(2,6-dioxopiperidin-3-yl)-1,3-dioxo-2,3-dihydro-1H-isoindol-4-yl]-7-azaspiro[3.5]nonan-2-yl}oxy)piperidin-1-yl]pyrimidin-4-yl}amino)-2-oxo-1-(propan-2-yl)-1,2-dihydroquinolin-3-yl]oxy}-N-methylacetamide] here?
Answer: ≥ 70%

Question: What about the IC50 of the same molecule?
Answer: < 10 nM

Question: With CNC(=O)COc1cc2cc(Nc3nc(N4CCC5(CC4)CC(OC4CCN(c6ccc7c(c6)C(=O)N(C6CCC(=O)NC6=O)C7=O)CC4)C5)ncc3Cl)ccc2n(C(C)C)c1=O (centres unmarked) [compound 392, 2-{[6-({5-chloro-2-[2-({1-[2-(2,6-dioxopiperidin-3-yl)-1,3-dioxo-2,3-dihydro-1H-isoindol-5-yl]piperidin-4-yl}oxy)-7-azaspiro[3.5]nonan-7-yl]pyrimidin-4-yl}amino)-2-oxo-1-(propan-2-yl)-1,2-dihydroquinolin-3-yl]oxy}-N-methylacetamide] as the molecule, how does the IC50 read?
Answer: ≥ 100 nM

Question: Which Dmax does the source give for CNC(=O)COc1cc2cc(Nc3nc(N4CCC5(CC4)CC(OC4CCN(c6cccc7c6C(=O)N(C6CCC(=O)NC6=O)C7=O)CC4)C5)ncc3Cl)ccc2n(C(C)C)c1=O (centres unmarked) [compound 393, 2-{[6-({5-chloro-2-[2-({1-[2-(2,6-dioxopiperidin-3-yl)-1,3-dioxo-2,3-dihydro-1H-isoindol-4-yl]piperidin-4-yl}oxy)-7-azaspiro[3.5]nonan-7-yl]pyrimidin-4-yl}amino)-2-oxo-1-(propan-2-yl)-1,2-dihydroquinolin-3-yl]oxy}-N-methylacetamide] here?
Answer: ≥ 70%

Question: And the IC50?
Answer: < 10 nM

Question: Which Dmax does the source give for CC[C@H]1CN(c2ncc(Cl)c(Nc3ccc4c(c3)cc(OCC(=O)NC)c(=O)n4C(C)C)n2)C[C@@H](COc2ccc3c(c2)C(=O)N(C2CCC(=O)NC2=O)C3=O)O1 (stereo partly drawn) [compound 394, 2-{[6-({5-chloro-2-[(2S,6S)-2-({[2-(2,6-dioxopiperidin-3-yl)-1,3-dioxo-2,3-dihydro-1H-isoindol-5-yl]oxy}methyl)-6-ethylmorpholin-4-yl]pyrimidin-4-yl}amino)-2-oxo-1-(propan-2-yl)-1,2-dihydroquinolin-3-yl]oxy}-N-methylacetamide] here?
Answer: 50 to 70%

Question: What about the IC50 of the same molecule?
Answer: < 10 nM

Question: How did the IC50 turn out when CNC(=O)CCN1Cc2cc(Nc3nc(N4CCN(CC5CCN(c6ccc7c(c6)C(=O)N(C6CCC(=O)NC6=O)C7=O)CC5)CC4)ncc3Cl)ccc2CC1=O (centres unmarked) [compound 395, 3-[7-({5-chloro-2-[4-({1-[2-(2,6-dioxopiperidin-3-yl)-1,3-dioxo-2,3-dihydro-1H-isoindol-5-yl]piperidin-4-yl}methyl)piperazin-1-yl]pyrimidin-4-yl}amino)-3-oxo-1,2,3,4-tetrahydroisoquinolin-2-yl]-N-methylpropanamide] was run?
Answer: 1000 nM

Question: How did the Dmax turn out when CNC(=O)COc1cc2cc(Nc3nc(N4CCN(C(C)(C)C5CCN(c6cccc(C(=O)NC7CCC(=O)NC7=O)[n+]6[O-])CC5)CC4)ncc3Cl)ccc2n(C)c1=O (centres unmarked) [compound 396, 2-[4-(2-{4-[5-chloro-4-({1-methyl-3-[(methylcarbamoyl)methoxy]-2-oxo-1,2-dihydroquinolin-6-yl}amino)pyrimidin-2-yl]piperazin-1-yl}propan-2-yl)piperidin-1-yl]-6-[(2,6-dioxopiperidin-3-yl)carbamoyl]pyridin-1-ium-1-olate] was run?
Answer: < 50%

Question: And the IC50?
Answer: 10 to 50 nM

Question: With CNC(=O)COc1cc2cc(Nc3nc(N4CCN(CC5CCN(c6cccc(C(=O)NC7CCC(=O)NC7=O)[n+]6[O-])CC5)CC4)ncc3Cl)ccc2n(C(C)C)c1=O (centres unmarked) [compound 397, 2-[4-({4-[5-chloro-4-({3-[(methylcarbamoyl)methoxy]-2-oxo-1-(propan-2-yl)-1,2-dihydroquinolin-6-yl}amino)pyrimidin-2-yl]piperazin-1-yl}methyl)piperidin-1-yl]-6-[(2,6-dioxopiperidin-3-yl)carbamoyl]pyridin-1-ium-1-olate] as the molecule, how does the Dmax read?
Answer: < 50%

Question: And the IC50?
Answer: 10 to 50 nM

Question: CNC(=O)COc1cc2cc(Nc3nc(N4CCN(CC5CCCN5c5cccc6c5C(=O)N(C5CCC(=O)NC5=O)C6=O)CC4)ncc3Cl)ccc2n(C(C)C)c1=O (centres unmarked) [compound 398, 2-{[6-({5-chloro-2-[4-({1-[2-(2,6-dioxopiperidin-3-yl)-1,3-dioxo-2,3-dihydro-1H-isoindol-4-yl]pyrrolidin-2-yl}methyl)piperazin-1-yl]pyrimidin-4-yl}amino)-2-oxo-1-(propan-2-yl)-1,2-dihydroquinolin-3-yl]oxy}-N-methylacetamide] was tested. Which Dmax did it give?
Answer: < 50%

Question: And the IC50?
Answer: < 10 nM

Question: Which Dmax does the source give for CNC(=O)COc1cc2cc(Nc3nc(N4CCN(CC5CCN(C(=O)c6ccc(OC)c(N7CCC(=O)NC7=O)c6)CC5)CC4)ncc3Cl)ccc2n(C(C)C)c1=O [compound 401, 2-{[6-({5-chloro-2-[4-({1-[3-(2,4-dioxo-1,3-diazinan-1-yl)-4-methoxybenzoyl]piperidin-4-yl}methyl)piperazin-1-yl]pyrimidin-4-yl}amino)-2-oxo-1-(propan-2-yl)-1,2-dihydroquinolin-3-yl]oxy}-N-methylacetamide] here?
Answer: < 50%

Question: And the IC50?
Answer: < 10 nM

Question: For CNC(=O)COc1cc2cc(Nc3nc(N4CCN(CC5CCN(C(=O)c6ccc(N7CCC(=O)NC7=O)cc6)CC5)CC4)ncc3Cl)ccc2n(C(C)C)c1=O [compound 402, 2-{[6-({5-chloro-2-[4-({1-[4-(2,4-dioxo-1,3-diazinan-1-yl)benzoyl]piperidin-4-yl}methyl)piperazin-1-yl]pyrimidin-4-yl}amino)-2-oxo-1-(propan-2-yl)-1,2-dihydroquinolin-3-yl]oxy}-N-methylacetamide], which IC50 is on record?
Answer: ≥ 100 nM

Question: With CNC(=O)COc1cc2cc(Nc3nc(N4CCC(O[C@H]5C[C@H](N6CCC(c7ccc8c(c7)C(=O)N(C7CCC(=O)NC7=O)C8=O)CC6)C5)CC4)ncc3Cl)ccc2n(C(C)C)c1=O (some centres unmarked) [compound 403, 2-({6-[(5-chloro-2-{4-[(1r,3r)-3-{4-[2-(2,6-dioxopiperidin-3-yl)-1,3-dioxo-2,3-dihydro-1H-isoindol-5-yl]piperidin-1-yl}cyclobutoxy]piperidin-1-yl}pyrimidin-4-yl)amino]-2-oxo-1-(propan-2-yl)-1,2-dihydroquinolin-3-yl}oxy)-N-methylacetamide] as the molecule, how does the Dmax read?
Answer: 50 to 70%

Question: And the IC50?
Answer: < 10 nM

Question: CNC(=O)COc1cc2cc(Nc3nc(N4CCN(CC5CCN(c6cc7c(cc6OC)C(=O)N(C6CCC(=O)NC6=O)C7=O)CC5)CC4)ncc3Cl)ccc2n(C(C)C)c1=O (centres unmarked) [compound 404, 2-{[6-({5-chloro-2-[4-({1-[2-(2,6-dioxopiperidin-3-yl)-6-methoxy-1,3-dioxo-2,3-dihydro-1H-isoindol-5-yl]piperidin-4-yl}methyl)piperazin-1-yl]pyrimidin-4-yl}amino)-2-oxo-1-(propan-2-yl)-1,2-dihydroquinolin-3-yl]oxy}-N-methylacetamide] was tested. Which Dmax did it give?
Answer: ≥ 70%

Question: What about the IC50 of the same molecule?
Answer: 10 to 50 nM
